Read-outs that look alike come from different tables or passages of the source.
Legend:
[1] = target: GSK 3α (Homo sapiens (Human), UniProt P49840); test: GSK 3α enzyme inhibition (FRET, Z-LYTE, Method 2); format: biochemical; conditions: read-out: IC50 Values for Enzyme Inhibition, GSK3α
Method: The enzyme inhibitory activities of compounds disclosed herein are determined by FRET using synthetic peptides labelled with both donor and acceptor fluorophores (Z-LYTE, Invitrogen Ltd., Paisley, UK).
The following two assay variants can be used for determination of GSK 3α inhibition.
The inhibitory activities of compounds of the invention against the GSK 3α enzyme isoform (Invitrogen), are evaluated by determining the level of activation/phosphorylation of the target peptide. The GSK3-α protein (500 ng/mL, 2.5 μL) is mixed with the test compound (2.5 μL at either 4 μg/mL, 0.4 μg/mL, 0.04 μg/mL, or 0.004 μg/mL) for 2 hr at RT. The FRET peptide (8 μM, 2.5 μL), which is a phosphorylation target for GSK3α, and ATP (40 μM, 2.5 μL) are then added to the enzyme/compound mixture and the resulting mixture incubated for 1 hr. Development reagent (protease, 5 μL) is added for 1 hr prior to detection in a fluorescence microplate reader (Varioskan® Flash, ThermoFisher Scientific).
In all cases, the site-specific protease cleaves non-phosphorylated peptide only and eliminates the FRET signal. Phosphorylation levels of each reaction are calculated using the ratio of coumarin emission (donor) over fluorescein emission (acceptor), for which high ratios indicate high phosphorylation and low ratios indicate low phosphorylation levels. The percentage inhibition of each reaction is calculated relative to non-inhibited control and the 50% inhibitory concentration (IC50 value) is then calculated from the concentration-response curve.
This method follows the same steps as Method 1 above, but utilises a shorter period of mixing of the test compound (105 minutes instead of 2 hours) with the GSK3-α protein.

[2] = test system: PBMCs; test: LPS-induced IL-8 release in PBMC cells (assay b); format: cell-based, human; conditions: LPS-stimulated PBMCs, read-out: IC50 Values for Inhibition of Cytokine Release, PBMCs IL-8
Method: Peripheral blood mononuclear cells (PBMCs) from healthy subjects are separated from whole blood using a density gradient (Lymphoprep, Axis-Shield Healthcare). The PBMCs are seeded in 96 well plates and treated with compounds at the desired concentration for 2 hours before addition of 1 ng/mL LPS (Escherichia Coli 0111:B4 from Sigma Aldrich) for 24 hours under normal tissue culture conditions (37° C., 5% CO2). The supernatant is harvested for determination of IL-8 and TNFα concentrations by sandwich ELISA (Duo-set, R&D systems) and read on the fluorescence microplate reader (Varioskan® Flash, ThermoFisher Scientific). The concentration at 50% inhibition (IC50) of IL-8 and TNFα production is calculated from the dose response curve.

Chain of GSK 3α (P49840 whole entry): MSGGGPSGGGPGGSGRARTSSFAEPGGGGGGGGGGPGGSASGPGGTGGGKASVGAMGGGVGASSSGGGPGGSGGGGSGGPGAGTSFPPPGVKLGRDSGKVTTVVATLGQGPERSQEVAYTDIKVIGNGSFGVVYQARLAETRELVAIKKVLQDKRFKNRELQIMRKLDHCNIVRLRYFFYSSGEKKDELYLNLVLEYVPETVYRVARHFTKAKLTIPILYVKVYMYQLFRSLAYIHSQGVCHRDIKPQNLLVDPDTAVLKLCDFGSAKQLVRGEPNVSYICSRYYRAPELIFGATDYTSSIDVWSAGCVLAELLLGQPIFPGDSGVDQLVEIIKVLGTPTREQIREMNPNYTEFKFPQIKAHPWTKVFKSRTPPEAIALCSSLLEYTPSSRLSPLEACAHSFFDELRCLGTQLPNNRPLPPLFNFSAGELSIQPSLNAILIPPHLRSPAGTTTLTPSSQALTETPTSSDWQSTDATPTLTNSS

| Structure (SMILES) | IC50 [1] | IC50 ([2]; Homo sapiens, PBMC) | IC50 [2] |
| --- | --- | --- | --- |
| COc1c(NC(=O)Nc2ccc(Oc3ccnc(Nc4ccccc4)c3)c3ccccc23)cc(C(C)(C)C)cc1[S+](C)[O-] (single isomer, unassigned) [38(b2), 1-(5-(tert-Butyl)-2-methoxy-3-(methylsulfinyl)phenyl)-3-(4-((2-(phenylamino)pyridin-4-yl)oxy)naphthalen-1-yl)urea] | > 11100 nM | 6 nM | – |
| COc1c(NC(=O)Nc2ccc(Oc3ccnc(Nc4ccc5c(c4)C(=O)NC5)n3)c3ccccc23)cc(C(C)(C)C)cc1P(C)(C)=O [15(ab), 1-(5-(tert-butyl)-3-(dimethylphosphoryl)-2-methoxyphenyl)-3-(4-((2-((3-oxoisoindolin-5-yl)amino)pyrimidin-4-yl)oxy)naphthalen-1-yl)urea] | 97 nM | 5.5 nM | – |
| CCP(=O)(CC)c1cc(C(C)(C)C)cc(NC(=O)Nc2ccc(Oc3ccnc(Nc4ccccc4)c3)c3ccccc23)c1OC [15(ac), 1-(5-(tert-butyl)-3-(diethylphosphoryl)-2-methoxyphenyl)-3-(4-((2-(phenylamino)-pyridin-4-yl)oxy)naphthalen-1-yl)urea] | > 14700 nM | 9.1 nM | – |
| COc1c(NC(=O)Nc2ccc(Oc3ccnc(Nc4cncc(N(C)C)n4)c3)c3ccccc23)cc(C(C)(C)C)cc1P(C)(C)=O [15(ae), 1-(5-(tert-butyl)-3-(dimethylphosphoryl)-2-methoxyphenyl)-3-(4-((2-((6-(dimethylamino)pyrazin-2-yl)amino)pyridin-4-yl)oxy)naphthalen-1-yl)urea] | 871 nM | 3.9 nM | – |
| COc1c(NC(=O)Nc2ccc(Oc3ccnc(Nc4ccccc4)c3)c3ccccc23)cc(C(C)(C)C)cc1C(=O)NCCN1CCCC1 [15(ag), 5-(tert-butyl)-2-methoxy-3-(3-(4-((2-(phenylamino)pyridin-4-yl)oxy)naphthalen-1-yl)ureido)-N-(2-(pyrrolidin-1-yl)ethyl)benzamide] | 5810 nM | 9.8 nM | – |
| COc1c(NC(=O)Nc2ccc(Oc3ccnc(NC4CCN(C)CC4)n3)c3ccccc23)cc(C(C)(C)C)cc1P(C)(C)=O [15(ah), 1-(5-(tert-butyl)-3-(dimethylphosphoryl)-2-methoxyphenyl)-3-(4-((2-((1-methylpiperidin-4-yl)amino)pyrimidin-4-yl)oxy)naphthalen-1-yl)urea] | 602 nM | 299 nM | – |
| COc1c(NC(=O)Nc2ccc(Oc3ccnc(N[C@@H]4CCOC4)n3)c3ccccc23)cc(C(C)(C)C)cc1P(C)(C)=O [15(ai), (R)-1-(5-(tert-butyl)-3-(dimethylphosphoryl)-2-methoxyphenyl)-3-(4-((2-((tetrahydrofuran-3-yl)amino)pyrimidin-4-yl)oxy)naphthalen-1-yl)urea] | 127 nM | 3.7 nM | – |
| COc1c(NC(=O)Nc2ccc(Oc3ccnc(N[C@H]4CCOC4)n3)c3ccccc23)cc(C(C)(C)C)cc1P(C)(C)=O [15(aj), (S)-1-(5-(tert-butyl)-3-(dimethylphosphoryl)-2-methoxyphenyl)-3-(4-((2-((tetrahydrofuran-3-yl)amino)pyrimidin-4-yl)oxy)naphthalen-1-yl)urea] | 68 nM | 1.8 nM | – |
| COc1c(NC(=O)Nc2ccc(Oc3ccnc(NCCN4CCOCC4)n3)c3ccccc23)cc(C(C)(C)C)cc1P(C)(C)=O [15(al), 1-(5-(tert-butyl)-3-(dimethylphosphoryl)-2-methoxyphenyl)-3-(4-((2-((2-morpholinoethyl)amino)pyrimidin-4-yl)oxy)naphthalen-1-yl)urea] | 339 nM | – | 3.7 nM |
| COc1c(NC(=O)Nc2ccc(Oc3ccnc(Nc4cc(C)cc(Cl)c4)c3)c3ccccc23)cc(C(C)(C)C)cc1P(C)(C)=O [15(am), 1-(5-(tert-butyl)-3-(dimethylphosphoryl)-2-methoxyphenyl)-3-(4-((2-((3-chloro-5-methylmethylphenyl)amino)pyridin-4-yl)oxy)naphthalen-1-yl)urea] | – | 6.1 nM | – |
| COc1c(NC(=O)Nc2ccc(Oc3ccnc(NCCn4cccn4)n3)c3ccccc23)cc(C(C)(C)C)cc1P(C)(C)=O [15(ao), 1-(4-((2-((2-(1H-pyrazol-1-yl)ethyl)amino)pyrimidin-4-yl)oxy)naphthalen-1-yl)-3-(5-(tert-butyl)-3-(dimethylphosphoryl)-2-methoxyphenyl)urea] | 387 nM | 4.1 nM | – |
| Cc1c(NC(=O)Nc2ccc(Oc3ccnc(Nc4ccccc4)c3)c3ccccc23)cc(C(C)(C)C)cc1P(C)(C)=O [15(ap), 1-(5-(tert-butyl)-3-(dimethylphosphoryl)-2-methylphenyl)-3-(4-((2-(phenylamino)pyridin-4-yl)oxy)naphthalen-1-yl)urea] | > 16900 nM | 48.3 nM | – |
| COc1c(NC(=O)Nc2ccc(Oc3ccnc(Nc4cnn(C)n4)c3)c3ccccc23)cc(C(C)(C)C)cc1P(C)(C)=O [15(ar), 1-(5-(tert-butyl)-3-(dimethylphosphoryl)-2-methoxyphenyl)-3-(4-((2-((2-methyl-2H-1,2,3-triazol-4-yl)amino)pyridin-4-yl)oxy)naphthalen-1-yl)urea] | 356 nM | 0.8 nM | – |
| COc1cc(Nc2cc(Oc3ccc(NC(=O)Nc4cc(C(C)(C)C)cc(C(=O)NCCN5CCNCC5)c4OC)c4ccccc34)ccn2)cc(OC)c1 [79(h), 5-(tert-Butyl)-3-(3-(4-((2-((3,5-dimethoxyphenyl)amino)pyridin-4-yl)oxy)naphthalen-1-yl)ureido)-2-methoxy-N-(2-(piperazin-1-yl)ethyl)benzamide] | – | 16.4 nM | – |
| COc1cc(Nc2nccc(Oc3ccc(NC(=O)Nc4cc(C(C)(C)C)cc(S(C)(=O)=O)c4OC)c4ccccc34)n2)ccc1C(=O)O [79(i), 4-((4-((4-(3-(5-(tert-Butyl)-2-methoxy-3-(methylsulfonyl)phenyl)ureido)naphthalen-1-yl)oxy)pyrimidin-2-yl)amino)-2-methoxybenzoic acid] | – | 12.2 nM | – |
| COc1cc(Nc2nccc(Oc3ccc(NC(=O)Nc4cc(C(C)(C)C)cc([S+](C)[O-])c4OC)c4ccccc34)n2)ccc1C(=O)O (stereo not drawn) [79(j), 4-((4-((4-(3-(5-(tert-Butyl)-2-methoxy-3-(methylsulfinyl)phenyl)ureido)naphthalen-1-yl)oxy)pyrimidin-2-yl)amino)-2-methoxybenzoic acid] | – | 15.3 nM | – |
| COc1cc(Nc2cc(Oc3ccc(NC(=O)Nc4cc(C(C)(C)C)cc(P(C)(C)=O)c4OC)c4ccccc34)ccn2)cc(C(=O)N(C)CCN2CCN(C)CC2)c1 [79(k), 3-((4-((4-(3-(5-(tert-Butyl)-3-(dimethylphosphoryl)-2-methoxyphenyl)ureido)naphthalen-1-yl)oxy)pyridin-2-yl)amino)-5-methoxy-N-methyl-N-(2-(4-methylpiperazin-1-yl)ethyl)benzamide] | – | 7 nM | – |
| COc1cc(Nc2cc(Oc3ccc(NC(=O)Nc4cc(C(C)(C)C)cc(P(C)(C)=O)c4OC)c4ccccc34)ccn2)cc(C(=O)N(C)CCC2CCN(C)CC2)c1 [79(l), 3-((4-((4-(3-(5-(tert-Butyl)-3-(dimethylphosphoryl)-2-methoxyphenyl)ureido)naphthalen-1-yl)oxy)pyridin-2-yl)amino)-5-methoxy-N-methyl-N-(2-(1-methylpiperidin-4-yl)ethyl)benzamide] | – | 22.5 nM | – |
| COCCOCCOCCNC(=O)c1cc(Nc2nccc(Oc3ccc(NC(=O)Nc4cc(C(C)(C)C)cc(CNC(=O)CN(C)C)c4OC)c4ccccc34)n2)cc(OC)c1 [Example 81, 3-((4-((4-(3-(5-(tert-Butyl)-3-((2-(dimethylamino)acetamido)methyl)-2-methoxyphenyl)ureido)-naphthalen-1-yl)oxy)pyrimidin-2-yl)amino)-5-methoxy-N-(2-(2-(2-methoxyethoxy)ethoxy)-ethyl)benzamide] | – | 0.4 nM | – |
| COCCOCCOCCNC(=O)c1cc(Nc2cc(Oc3ccc(NC(=O)Nc4cc(C(C)(C)C)cc(CN5CCN(C)CC5)c4OC)c4ccccc34)ccn2)cc(OC)c1 [Example 82, 3-((4-((4-(3-(5-(tert-Butyl)-2-methoxy-3-((4-methylpiperazin-1-yl)methyl)phenyl)ureido)-naphthalen-1-yl)oxy)pyridin-2-yl)amino)-5-methoxy-N-(2-(2-(2-methoxyethoxy)ethoxy)ethyl)-benzamide] | – | 1.7 nM | – |
| COc1cc(Nc2nccc(Oc3ccc(NC(=O)Nc4cc(C(C)(C)C)cc([S+](C)[O-])c4OC)c4ccccc34)n2)cc(C(=O)NCCN2CCN(C)CC2)c1 (stereo not drawn) [Example 83, 3-((4-((4-(3-(5-(tert-Butyl)-2-methoxy-3-(methylsulfinyl)phenyl)ureido)naphthalen-1-yl)oxy)pyrimidin-2-yl)amino)-5-methoxy-N-(2-(4-methylpiperazin-1-yl)ethyl)benzamide] | – | 1.5 nM | – |

Source: patent publication US9890185B2, “Urea derivatives useful as kinase inhibitors” (Respivert Limited, priority 2013, dated 2018)
